Measurements from patent publication US20170042152A1, “SAFENED HERBICIDAL COMPOSITIONS COMPRISING PYRIDINE CARBOXYLIC ACIDS” (priority 2015, published 2017).

Key:
spring wheat (TRZAS) = test: Greenhouse postemergence safening trial, crop phytotoxicity; assay type: in vivo, Triticum aestivum; conditions: cloquintocet-mexyl 0 g ai/ha, 20-22 d
Description: (§1) Seeds of the desired test plant species were planted in Sun Gro MetroMix® 306 planting mixture, which typically has a pH of 6.0 to 6.8 and an organic matter content of about 30 percent, in plastic pots with a surface area of 103.2 square centimeters (cm^2). When required to ensure good germination and healthy plants, a fungicide treatment and/or other chemical or physical treatment was applied. The plants were grown for 7-36 days (d) in a greenhouse with an approximate 14-hour (h) photoperiod which was maintained at about 18° C. during the day and 17° C. during the night. Nutrients and water were added on a regular basis and supplemental lighting was provided with overhead metal halide 1000-Watt lamps as necessary. The plants were employed for testing when they reached the second or third true leaf stage.
(§2) Weighed amounts of technical material were dissolved in a volume of 97:3 volume per volume (v/v) acetone/dimethyl sulfoxide (DMSO) to stock solutions. […] Compound requirements are based upon a 12 milliliter (mL) application volume at a rate of 187 liters per hectare (L/ha). Stock solutions of the safeners were prepared following the same procedure. Spray solutions of the safeners and experimental compound mixtures were prepared by adding the stock solutions to the appropriate amount of dilution solution to form a 12 mL spray solution in two-way combinations. Formulated compounds were applied to the plant material with an overhead Mandel track sprayer equipped with 8002E nozzles calibrated to deliver 187 L/ha over an application area of 0.503 square meters (m^2) at a spray height of 18 inches (43 centimeters (cm)) above average plant canopy. Control plants were sprayed in the same manner with the solvent blank.
(§3) The treated plants and control plants were placed in a greenhouse as described above and watered by sub-irrigation to prevent wash-off of the test compounds. After 20-22 d, the condition of the test plants as compared with that of the control plants was determined visually and scored on a scale of 0 to 100 percent where 0 corresponds to no injury and 100 corresponds to complete kill. Colby's equation was used to determine the herbicidal effects expected from the mixtures.

winter wheat (TRZAW) [1] = test: as above; assay type: in vivo, Triticum aestivum; conditions: herbicide 20 g ae/ha, cloquintocet-mexyl 0 g ai/ha, 20-22 d
Description: as §1, §2, §3

spring barley (HORVS) = test: as above; assay type: in vivo, Hordeum vulgare; conditions: cloquintocet-mexyl 0 g ai/ha, 20-22 d
Description: as §1, §2, §3

wild buckwheat (POLCO) = test: Greenhouse postemergence trial, weed efficacy; assay type: in vivo, Polygonum convulvus; conditions: cloquintocet-mexyl 0 g ai/ha, 20-22 d
Description: as §1, §2, §3

kochia (KCHSC) = test: Greenhouse postemergence trial, weed efficacy; assay type: in vivo, Kochia scoparia; conditions: cloquintocet-mexyl 0 g ai/ha, 20-22 d
Description: as §1, §2, §3

Russian thistle (SASKR) = test: Greenhouse postemergence trial, weed efficacy; assay type: in vivo, Salsola iberica; conditions: cloquintocet-mexyl 0 g ai/ha, 20-22 d
Description: as §1, §2, §3

wild pansy (VIOTR) = test: Greenhouse postemergence trial, weed efficacy; assay type: in vivo, Viola tricolor; conditions: cloquintocet-mexyl 0 g ai/ha, 20-22 d
Description: as §1, §2, §3

[2] = tested on: bird's-eye speedwell (VERPE); test: Greenhouse postemergence trial, weed efficacy; assay type: in vivo, Veronica persica; conditions: cloquintocet-mexyl 0 g ai/ha, 20-22 d
Description: as §1, §2, §3

wild mustard (SINAR) = test: Greenhouse postemergence trial, weed efficacy; assay type: in vivo, Sinapis arvensis; conditions: herbicide 20 g ae/ha, cloquintocet-mexyl 0 g ai/ha, 20-22 d
Description: as §1, §2, §3

shepherd's purse (CAPBP) = test: Greenhouse postemergence trial, weed efficacy; assay type: in vivo, Capsella bura-pastoris; conditions: herbicide 20 g ae/ha, cloquintocet-mexyl 0 g ai/ha, 20-22 d
Description: as §1, §2, §3

lambsquarters (CHEAL) [3] = test: Greenhouse postemergence trial, weed efficacy; assay type: in vivo, Chenopodium album; conditions: herbicide 20 g ae/ha, cloquintocet-mexyl 0 g ai/ha, 20-22 d
Description: as §1, §2, §3

winter wheat (TRZAW) [4] = test: Small plot field trial, crop safety; assay type: in vivo, Triticum aestivum; conditions: 20 g ae/ha herbicide (triisopropanol amine salt), no safener, post-emergence, mean
Description: (§4) The triisopropanol amine salts of herbicides of formulas I-G-A, I-G-B and I-G-C were tested with and without cloquintocet-mexyl in small plot field trials across various ecozones to evaluate the crop safety of these compounds on […] cereals including winter wheat and durum wheat.
(§5) All herbicide treatments were applied post-emergence in the spring to early summer. Herbicides were applied with bicycle or tractor-mounted sprayers using carbon dioxide (CO2) as a propellant. The sprayers delivered a uniform spray pattern that provided thorough coverage of the foliage using a 150 or 200 L/ha spray volume. At the time of herbicide applications, winter wheat was at the two leaf growth stage and durum wheat was at the 2-3 leaf growth stage.
(§6) Phytotoxicity to cereal crops was visually assessed as percent overall injury, compared to an untreated control plot. The overall injury assessments were based on visual ratings of growth inhibition, chlorosis, and delay in maturity. At late ratings (54-57 days after application), percent visual seed head deformity and reduction in seed formation were also assessed. Trials were designed as randomized complete blocks with four replicates. In general, three to four replicates were assessed for each treatment.

Canada thistle (CIRAR) = test: Small plot field trial, weed growth reduction; assay type: in vivo, Cirsuim arvensis; conditions: 20 g ae/ha herbicide (triisopropanol amine salt), no safener, post-emergence, mean
durum wheat (TRZDU) = test: Small plot field trial, crop safety; assay type: in vivo, Triticum durum; conditions: 20 g ae/ha herbicide (triisopropanol amine salt), no safener, post-emergence, mean
Description: as §4, §5, §6

lambsquarters (CHEAL) [5] = test: Small plot field trial, weed growth reduction; assay type: in vivo, Chenopodium album; conditions: 20 g ae/ha herbicide (triisopropanol amine salt), no safener, post-emergence, mean

SMILES: CCc1nc(C(=O)O)c(Cl)c(N)c1F [formula I-G-A]
- % visual injury TRZAS Ob (spring wheat (TRZAS); herbicide 4.375 g ae/ha): 0%
- % visual injury TRZAS Ob (spring wheat (TRZAS); herbicide 8.75 g ae/ha): 7%
- % visual injury TRZAS Ob (spring wheat (TRZAS); herbicide 17.5 g ae/ha): 33%
- % visual injury TRZAS Ob (spring wheat (TRZAS); herbicide 35 g ae/ha): 60%
- % visual injury TRZAS Ob (spring wheat (TRZAS); herbicide 70 g ae/ha): 70%
- % visual injury TRZAW Ob (winter wheat (TRZAW) [1]): 25%
- % visual injury HORVS Ob (spring barley (HORVS); herbicide 4.375 g ae/ha): 0%
- % visual injury HORVS Ob (spring barley (HORVS); herbicide 8.75 g ae/ha): 3%
- % visual injury HORVS Ob (spring barley (HORVS); herbicide 17.5 g ae/ha): 10%
- % visual injury HORVS Ob (spring barley (HORVS); herbicide 20 g ae/ha): 13%
- % visual injury HORVS Ob (spring barley (HORVS); herbicide 35 g ae/ha): 37%
- % visual injury HORVS Ob (spring barley (HORVS); herbicide 70 g ae/ha): 47%
- % visual injury POLCO Ob (wild buckwheat (POLCO); herbicide 4.375 g ae/ha): 0%
- % visual injury POLCO Ob (wild buckwheat (POLCO); herbicide 8.75 g ae/ha): 49%
- % visual injury POLCO Ob (wild buckwheat (POLCO); herbicide 17.5 g ae/ha): 40%
- % visual injury POLCO Ob (wild buckwheat (POLCO); herbicide 35 g ae/ha): 75%
- % visual injury POLCO Ob (wild buckwheat (POLCO); herbicide 70 g ae/ha): 96%
- % visual injury KCHSC Ob (kochia (KCHSC); herbicide 4.375 g ae/ha): 13%
- % visual injury KCHSC Ob (kochia (KCHSC); herbicide 8.75 g ae/ha): 23%
- % visual injury KCHSC Ob (kochia (KCHSC); herbicide 17.5 g ae/ha): 32%
- % visual injury KCHSC Ob (kochia (KCHSC); herbicide 35 g ae/ha): 67%
- % visual injury KCHSC Ob (kochia (KCHSC); herbicide 70 g ae/ha): 67%
- % visual injury SASKR Ob (Russian thistle (SASKR); herbicide 4.375 g ae/ha): 67%
- % visual injury SASKR Ob (Russian thistle (SASKR); herbicide 8.75 g ae/ha): 72%
- % visual injury SASKR Ob (Russian thistle (SASKR); herbicide 17.5 g ae/ha): 75%
- % visual injury SASKR Ob (Russian thistle (SASKR); herbicide 35 g ae/ha): 82%
- % visual injury SASKR Ob (Russian thistle (SASKR); herbicide 70 g ae/ha): 82%
- % visual injury VIOTR Ob (wild pansy (VIOTR); herbicide 4.375 g ae/ha): 3%
- % visual injury VIOTR Ob (wild pansy (VIOTR); herbicide 8.75 g ae/ha): 20%
- % visual injury VIOTR Ob (wild pansy (VIOTR); herbicide 17.5 g ae/ha): 37%
- % visual injury VIOTR Ob (wild pansy (VIOTR); herbicide 35 g ae/ha): 65%
- % visual injury VIOTR Ob (wild pansy (VIOTR); herbicide 70 g ae/ha): 82%
- % visual injury VERPE Ob ([2]; herbicide 4.375 g ae/ha): 0%
- % visual injury VERPE Ob ([2]; herbicide 8.75 g ae/ha): 7%
- % visual injury VERPE Ob ([2]; herbicide 17.5 g ae/ha): 23%
- % visual injury VERPE Ob ([2]; herbicide 35 g ae/ha): 50%
- % visual injury VERPE Ob ([2]; herbicide 70 g ae/ha): 77%
- % visual injury SINAR Ob (wild mustard (SINAR)): 97%
- % visual injury CAPBP Ob (shepherd's purse (CAPBP)): 100%
- % visual injury CHEAL Ob (lambsquarters (CHEAL) [3]): 85%
- Instances of TRZAW grain reduction, % of untreated (winter wheat (TRZAW) [4]): 39.9 % of untreated
- TRZAW grain formation reduction, % of untreated (winter wheat (TRZAW) [4]): 27.9 % of untreated
- Growth reduction of CIRAR, % of untreated (Canada thistle (CIRAR)): 95.5 % of untreated
- TRZDU Visual head deformation, % of untreated (durum wheat (TRZDU)): 4.3 % of untreated
- TRZDU Visual injury, % of untreated (durum wheat (TRZDU)): 5.7 % of untreated
- Growth reduction of CHEAL, % of untreated (lambsquarters (CHEAL) [5]): 100 % of untreated
